Entries after “also recorded” stand apart in the source; their conditions may differ. Where a name gives a salt, the structure may show the parent alone. Read-outs that look alike come from different tables or passages of the source.
What was measured:
GPBP = molecular target: T1, GPBP (Mus musculus, UniProt Q9EQG9); assay: GPBP phosphorylation state in C2C12 myotubes (Western blot); type: cell-based, Mice; settings: 3 hours (FIG. 65)
T1 construct: endogenous in cells; host or cells: C2C12 myotubes
T1 sequence (Q9EQG9 1-624): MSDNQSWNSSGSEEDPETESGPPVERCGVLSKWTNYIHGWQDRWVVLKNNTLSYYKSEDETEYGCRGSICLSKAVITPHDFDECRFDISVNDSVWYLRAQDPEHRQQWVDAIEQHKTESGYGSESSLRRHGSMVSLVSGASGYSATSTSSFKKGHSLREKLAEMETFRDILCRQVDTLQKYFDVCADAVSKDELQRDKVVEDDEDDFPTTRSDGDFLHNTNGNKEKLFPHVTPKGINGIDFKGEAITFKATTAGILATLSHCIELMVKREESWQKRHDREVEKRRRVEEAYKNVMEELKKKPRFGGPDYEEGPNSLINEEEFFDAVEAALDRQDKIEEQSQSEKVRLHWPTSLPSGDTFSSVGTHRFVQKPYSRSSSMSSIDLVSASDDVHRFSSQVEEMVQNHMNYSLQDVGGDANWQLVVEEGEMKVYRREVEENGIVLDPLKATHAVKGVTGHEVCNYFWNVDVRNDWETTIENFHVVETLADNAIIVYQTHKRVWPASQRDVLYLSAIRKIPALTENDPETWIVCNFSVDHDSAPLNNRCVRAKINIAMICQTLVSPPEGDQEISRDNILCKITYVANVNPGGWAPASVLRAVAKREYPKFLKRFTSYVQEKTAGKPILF
Protocol: FIG. 65. […]. Similar quantities of each extract were analyzed using Western blot (SDS-PAGE and electrotransfer), with the indicated antibodies and chemiluminescence (ECL Prime, GE Healthcare). The arrow marks a dephosphorylated band, with higher abundance in SLN10-treated cells than in non-treated or SLN1-treated cells.

LKB1 and GPBP = LKB1 and GPBP distribution in C2C12 myotubes (confocal microscopy); type: cell-based, Mice; settings: 10 mM, 3 hours (FIG. 71)
Protocol: FIG. 71. […] C2C12 cells were differentiated to myotubes for 5 days by incubation in DMEM medium, supplemented with 2% horse serum; […]. Cells were washed with PBS (3×5 minutes) and incubated with antibodies against mouse IgG, conjugated with Alexa Fluor 488, and against goat IgG, conjugated with Alexa Fluor 546 (Molecular Probes) for 1 hour at RM in the dark. In this and in the following Figures showing confocal microscopy of cell cultures, all antibodies used were diluted in blocking solution. After incubation with antibodies, cells were washed with PBS (3×5 minutes) and mounting medium (Dako) in glass slides. Preparations were visualized with confocal microscopy and obtained images were analyzed with the WCIF ImageJ software as to detect colocalization points between GPBP and LKB1. GPBP appears in green, LKB1 in red, and colocalization points indicating similar and corresponding expression levels in both proteins appear in white.

GPBP and VAPA = assay: Colocalization of GPBP with VAPA in C2C12 cells; type: cell-based, Mice; settings: C2C12, 10 mM, 16 hours; p=0.0093 Control vs. SLN1, p=0.0001 Control vs. SLN10, p=0.0283 SLN10 vs SLN1
Protocol: FIG. 74A. […] In FIG. 74A, C2C12 cells were differentiated for 3 days in DMEM supplemented with 2% horse serum. […] Subsequently, cells were washed with PBS (3×5 minutes) and incubated with mouse secondary anti-IgG antibodies, conjugated with Alexa Fluor 488, and goat anti-IgG antibodies, conjugated with TRITC (Molecular Probes) for 1 hour at RM in the dark; then, cells were washed again with PBS (3×5 minutes) and mounted for confocal microscopy observation. Afterwards, the images obtained were analyzed with the WCIF ImageJ software to quantify colocalization quotient between GPBP and VAPA. In the third column, the points at which there are similar expression levels of both GPBP and VAPA appear in white.

GLUT4 = assay: GLUT4-GFP transport to plasma membrane in NIH-3T3-L1 adipocytes; type: cell-based, Mice; settings: confocal microscopy (FIG. 75)
Protocol: FIG. 75. […] NIH-3T3-L1 cells were transfected with a construction expressing GLUT4 fused with Green Fluorescent Protein-GFP (Addgene). Transfected cells were selected by flow cytometry, taking advantage of GFP fluorescence, and cultured in DMEM supplemented with 10% FBS. […] Images were analyzed with the WCIF ImageJ software to detect colocalization of GPBP (red) with GLUT4 (green). […].

RAW264.7 macrophages = assay: GPBP secretion by RAW264.7 macrophages stimulated with LPS and IFN-γ (ELISA); type: cell-based
Protocol: FIG. 91. […]. FIG. 94. […]. In A, an assay scheme is shown; […]. […] In B, the relative expression of IL-10 in RAW264.7 macrophages cultured with conditioned media, obtained as specified in A, is shown. The analysis was carried out by quantitative RT and PCR, using HPRT-1 as a normalizer. In this case, the reference point were cells treated with a conditioned medium in absence of N26 (RQ=1 value), and the increased IL-10 expression was verified; the analysis included non-stimulated cells cultured in a fresh, non-conditioned medium (cells).
[…]; then, they were stimulated with LPS (0.5 μg/mL) and IFN-γ (20 ng/mL) for 16 hours, after which the GPBP concentration in culture media was determined by ELISA.
FIG. 104. […]. RAW264.7 cells (control cells) were treated as indicated (10 mM) for 2 hours and subsequently stimulated with LPS (0.5 μg/mL) and IFN-γ (20 ng/mL) for 16 hours; […].
FIG. 105. […]. then, the GPBP concentration in culture media was determined by ELISA.

[1] = tested on: rat model of streptozotocin-induced diabetes; assay: Blood glucose levels in rat model of streptozotocin-induced diabetes, 14 days oral; settings: mean ± SD; for Blood glucose levels before TI/RI administration, Day −3 (before STZ administration): rats, baseline before STZ and before first TI/RI administration
Protocol: For this purpose, animals were treated with streptozotocin to induce diabetes prior to group distribution. Control animals were treated with vehicle.
On day −3, 43 animals (36 to be used in the study and γ extra) were intravenously administered with streptozotocin (STZ, 60 mg/kg) to induce diabetes. Control animals (3) were intravenously administered with vehicle. […] On the same day, animals fulfilling the diabetic condition and with an acceptable health status were assigned to one of twelve groups (B to M) by means of the weight stratification method.
TI/RI administration regimen started approximately 72 hours after diabetes induction (day 1) and was performed at the same hour of the day throughout the entire study. […] Reference item and metformin compounds were administered at the same dose referred as base (250 mg/kg). A correction factor referred to metformin compound was applied for each test item to make sure that all animals received the same amount of metformin.
Blood glucose levels were measured before STZ administration (day −3), 24, and 48 hours after induction of diabetes (day −2 and day −1) and then twice daily until the end of the study, once approximately 1 hour before dosing and again approximately 2 hours after administration of TI/RI. Blood glucose levels were determined using reactive strips and a glucometer, after tail-vein puncture. Approximately 24 hours after last administration (day 15), overnight-fasted animals were sacrificed by CO2 overdose. Before sacrifice, animals were anaesthetized with isoflurane and blood from all animals was collected in lithium heparin tubes through the retro-orbital sinus puncture procedure. Plasma was extracted and triglycerides, total cholesterol and glucose levels were determined. Additionally, a gross necropsy was performed in all animals. Organs showing gross abnormalities were collected and preserved in 4% formaldehyde.
Blood glucose was determined using a drop of blood collected from tail vein puncture that was directly placed on a reactive strip inserted into a glucometer (ACCU-Check AVIVA, Roche). Blood glucose was determined before STZ administration (day −3), approximately 24 and 48 hours after diabetes induction (day −2 and −1), and twice daily thereafter until the end of the study period, once approximately 1 hour before administration of TI/RI and again approximately 2 hours after administration. Blood glucose measurements were performed at the same time of the day.
As a consequence the following statistical comparisons were not performed: • Basal blood glucose levels (i.e. before administration of TI/RI) vs basal blood glucose levels from diabetic control group (B). • Basal blood glucose levels vs basal blood glucose levels from diabetic animals treated with RI (group C). • Blood glucose levels differential (i.e. blood glucose level after administration subtracted from blood glucose level before administration) vs blood glucose levels differential from diabetic control group (B). • Blood glucose levels differential vs blood glucose levels differential from diabetic animals treated with RI (group C).
On the other hand, when upper glucometer detection limit allowed quantitative values, the following statistical comparisons were made (in the case the experimental group contained one value beyond the glucometer limit, this value was excluded from mean and SD calculation): • Blood glucose levels after administration vs blood glucose levels from diabetic control group (B). • Blood glucose levels after administration vs blood glucose levels from diabetic animals treated with RI (group C).

metformin lysinate
GPBP phosphorylation state in myotubes (GPBP; listed as SLN10): induce GPBP dephosphorylation; also recorded: induced a remarkable GPBP dephosphorylation
distribution of LKB1-GPBP aggregates (LKB1 and GPBP; listed as SLN10): seems to induce decolocalization in GPBP and LKB1; also recorded: delocalization of LKB1 and virtual absence of kinase in granular aggregates
colocalization of GPBP with VAPA (GPBP and VAPA): reduced significantly; also recorded: more intensely than SLN1
distribution of GPBP and GLUT4 in L1 adipocytes (GLUT4): widely located in the plasma membrane
GPBP secretion (RAW264.7 macrophages): induces cGPBP secretion; also recorded: induced GPBP secretion strongly
biological activity (GPBP secretion) with equimolar MgCl2 or CaCl2 (RAW264.7 macrophages): reduce the biological activity
cGPBP levels in conditioned medium (RAW264.7 macrophages): approximately 200 ng/mL
blood glucose level of animal ID93 (750 mg/kg, fifth day, six hours after the glucose overload): 16 mg/dL
Body weight (g) On administration day (Groups B-K, 250 mg/kg, Mean ± SD): 189.83 ± 11.17 g
Body weight (g) On distribution day (Groups B-K, 250 mg/kg, before dosing, Mean ± SD): 184.42 ± 11.94 g
Body weight (g) On distribution day (Groups L-U, 750 mg/kg, before dosing, Mean ± SD): 186.73 ± 8.05 g
Body weight (g) On first administration day (Groups L-U, 750 mg/kg, first column of this head, Mean ± SD): 203.38 ± 13.38 g
Body weight (g) On first administration day (Groups L-U, 750 mg/kg, second column of this head, Mean ± SD): 192.83 ± 9.65 g
mortality and clinical signs (glucokinetic groups, 750 mg/kg for five days, 750 mg/kg): hypothermia, lack of activity and tear excess
mortality and clinical signs (glucokinetic groups, 750 mg/kg for five days, listed as metformin lysinate, 750 mg/kg): severe hypoglycemia
mortality and clinical signs (pharmacokinetic assay, single 250 mg/kg): respiratory noises
Blood glucose levels before TI/RI administration, Day −1 ([1]; STZ-diabetic rats, before first TI/RI administration, n.d. = all values beyond ULOD of glucometer (600 mg/dl), § n=1, ¢ n=2): 577.00^§ ± n.d.^§ mg/dL
Blood glucose levels before TI/RI administration, Day −3 (before STZ administration) [1]: 114.00 ± 6.93 mg/dL

CN(C)C(=N)N=C(N)N [Metformin hydrochloride, metformin hydrochloride, reference compound]
GPBP phosphorylation state in myotubes (GPBP): barely altered the phosphorylation state
distribution of LKB1-GPBP aggregates (LKB1 and GPBP): moved LKB1-GPBP aggregates from peripheral positions to areas around the nuclei
colocalization of GPBP with VAPA (GPBP and VAPA): reduced significantly
distribution of GPBP and GLUT4 in L1 adipocytes (GLUT4): low presence in secretory vesicles
GPBP secretion (RAW264.7 macrophages; 10 mM, LPS 0.5 μg/mL and IFN-γ 20 ng/mL (FIG. 91)): did not induce significantly the secretion of GPBP
Body weight (g) On administration day (rat, in vivo, 250 mg/kg): 190.39 ± 9.88 g
Body weight (g) On distribution day (rat, in vivo, 250 mg/kg): 186.93 ± 10.39 g
Body weight (g) On distribution day (rat, in vivo, 750 mg/kg): 189.03 ± 15.13 g
Blood glucose levels before TI/RI administration, Day −3 (before STZ administration) [1]: 120.00 ± 8.72 mg/dL

Source: patent US11510886B2, “Metformin amino acid compounds and methods of using the same” (Laboratorios Silancs S.A. DE C.V., priority 2016, dated 2022)
